This passage reports IC50 results from patent US20140081025A1, “HETEROAROMATIC RING DERIVATIVE” (TAISHO PHARMACEUTICAL CO., LTD., priority 2011, published 2014).

Molecules are shown by their SMILES.

The target of assay [1] is T1, human orexin 1 receptor (hOX1R) (Homo sapiens, UniProt O43613).
T1 construct: expressed in transfected cells; host or cells: Chinese hamster ovary (CHO) cells
T1 sequence (O43613 1-425): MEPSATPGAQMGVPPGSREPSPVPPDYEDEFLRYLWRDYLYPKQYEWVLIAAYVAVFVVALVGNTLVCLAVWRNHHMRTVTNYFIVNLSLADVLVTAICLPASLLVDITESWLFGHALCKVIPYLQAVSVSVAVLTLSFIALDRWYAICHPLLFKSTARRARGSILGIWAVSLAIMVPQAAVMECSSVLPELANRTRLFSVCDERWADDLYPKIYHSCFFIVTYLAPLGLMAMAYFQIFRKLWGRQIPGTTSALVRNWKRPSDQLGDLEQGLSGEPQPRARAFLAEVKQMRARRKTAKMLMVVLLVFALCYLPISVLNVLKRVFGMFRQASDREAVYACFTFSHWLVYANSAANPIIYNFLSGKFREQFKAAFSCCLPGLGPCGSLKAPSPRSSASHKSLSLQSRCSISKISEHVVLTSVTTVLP
The assay is described as follows: Measurement of orexin antagonist activity (intracellular Ca2+ fluorescence, FDSS) in CHO cells expressing hOX1R. The assay is classed as cell-based. Particulars: CHO cells forcibly expressing hOX1R; ligand (two-amino-acid-substituted human orexin-A) 300 pM; Fluo 4-AM; read-out: IC50 value OX1. The procedure:
(§1) The antagonist activity of a test compound against the human orexin 1 receptor (hOX1R) or orexin 2 receptor (hOX2R) was measured by the method described in the document (Toshikatsu Okumura et al., Biochemical and Biophysical Research Communications, 280, 976-981, 2001) with appropriate modification. Chinese hamster ovary (CHO) cells forcibly expressing hOX1R or hOX2R were seeded into each well of a 96-well Black clear bottom plate (Nunc A/S) in the amount of 20000 cells per well and were cultured in a Ham's F-12 medium (Invitrogen, Inc.) containing 0.1 mM MEM non-essential amino acids (Invitrogen, Inc.), 0.5 mg/mL G418 (Invitrogen, Inc.), and 10% fetal calf serum (Invitrogen, Inc.) at 37° C. in 5% CO2 for 16 hours. The medium was removed, and then added to each well was 100 μL of an assay buffer (pH 7.4) containing 0.5 μM Fluo 4-AM ester (Dojindo Laboratories), wherein the buffer was composed of 25 mM HEPES (Dojindo Laboratories), a Hanks' balanced salt solution (Invitrogen, Inc.), 0.1% bovine serum albumin (Sigma-Aldrich Co., LLC.), 2.5 mM probenecid (Sigma-Aldrich Co., LLC.), and 200 μg/mL Amaranth (Sigma-Aldrich Co., LLC.), followed by incubation at 37° C. in 5% CO2 for 60 min. The assay buffer containing Fluo 4-AM ester was removed, and then 150 μL of an assay buffer solution containing 10 mM of the test compound dissolved in dimethyl sulfoxide was added to each well, followed by incubation for 30 min.
(§2) A peptide (Pyr-[…]NH2: Peptide Institute, Inc.), which is a ligand having substitution of two amino acids in human orexin-A, was diluted with an assay buffer to a final concentration of 300 pM for hOX1R and to a final concentration of 3 nM for hOX2R. The reaction was started by adding 50 μL of this ligand solution to each well. The reaction was monitored by measuring the fluorescence of each well at each 1 second for 3 min with a Functional Drug Screening System (FDSS manufactured by Hamamatsu Photonics K.K.), and the antagonist activity was determined based on the maximum fluorescence value as an index of the intracellular Ca^2+ concentration. The antagonist activity of a test compound was calculated by assuming that the fluorescence value of the well containing only a dilution buffer was 100% and that the fluorescence value of the well containing a buffer not containing the ligand or any test compound was 0%. The 50% inhibitory concentration (IC50 value) of a test compound was determined from fluorescence values at various concentrations of the test compound.

Assay [2] deals with T2, human orexin 2 receptor (hOX2R) (Homo sapiens, UniProt O43614).
T2 construct: expressed in transfected cells; host or cells: Chinese hamster ovary (CHO) cells
T2 sequence (O43614 1-444): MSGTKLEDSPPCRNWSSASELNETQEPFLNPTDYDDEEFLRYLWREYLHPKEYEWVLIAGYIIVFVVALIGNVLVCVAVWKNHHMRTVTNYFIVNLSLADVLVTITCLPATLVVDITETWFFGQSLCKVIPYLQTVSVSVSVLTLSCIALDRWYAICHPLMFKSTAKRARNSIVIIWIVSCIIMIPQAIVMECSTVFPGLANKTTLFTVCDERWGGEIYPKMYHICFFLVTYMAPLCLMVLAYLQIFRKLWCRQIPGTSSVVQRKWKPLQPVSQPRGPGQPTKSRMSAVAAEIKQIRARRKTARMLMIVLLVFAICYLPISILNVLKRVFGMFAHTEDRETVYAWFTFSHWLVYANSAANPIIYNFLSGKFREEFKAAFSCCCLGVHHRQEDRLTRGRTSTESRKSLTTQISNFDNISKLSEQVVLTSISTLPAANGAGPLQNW
In words: Measurement of orexin antagonist activity (intracellular Ca2+ fluorescence, FDSS) in CHO cells expressing hOX2R. Type of assay: cell-based. Particulars: CHO cells forcibly expressing hOX2R; ligand (two-amino-acid-substituted human orexin-A) 3 nM; Fluo 4-AM; read-out: IC50 value OX2. The protocol:
as §1, §2

In the case of `CCN(CCc1noc(-c2ccc(F)cn2)n1)C(=O)c1ccccc1-n1nccn1` [Example 44, N-ethyl-N-{2-[5-(5-fluoropyridin-2-yl)-1,2,4-oxadiazol-3-yl]ethyl}-2-(2H-1,2,3-triazol-2-yl) benzamide], the values for the IC50 in assay [1] and in assay [2] were 791 nM and 613 nM, respectively.

Take `Cc1ccc(-n2nccn2)c(C(=O)N(C)CCc2ccn(-c3ccc(F)cn3)n2)c1` [Example 5, N-{2-[1-(5-Fluoropyridin-2-yl)-1H-pyrazol-3-yl]ethyl}-N,5-dimethyl-2-(2H-1,2,3-triazol-2-yl)benzamide]: the IC50 stood at 2.1 nM in assay [1] and 8 nM in assay [2].

On to `CCN(CCc1ccn(-c2ccc(F)cc2)n1)C(=O)c1cc(F)ccc1-c1ncccn1` [Example 27, N-ethyl-5-fluoro-N-{2-[1-(4-fluorophenyl)-1H-pyrazol-3-yl]ethyl}-2-(pyrimidin-2-yl) benzamide], for which the figures for the IC50 in assay [1] and in assay [2] were 1.1 nM and 18.4 nM, respectively.

For `CCN(CCc1ccn(-c2cccc(C)n2)n1)C(=O)c1cc(F)ccc1-c1ncccn1` [Example 28, N-ethyl-5-fluoro-N-{2-[1-(6-methylpyridin-2-yl)-1H-pyrazol-3-yl]ethyl}-2-(pyrimidin-2-yl) benzamide], the IC50 was 8.1 nM in assay [1] and 81.1 nM in assay [2].

A word on the IC50: it is the concentration at which inhibition is half-maximal.
